Results from paper PMC7046733, “Plantaricin NC8 αβ exerts potent antimicrobial activity against Staphylococcus spp. and enhances the effects of antibiotics” (Scientific Reports, 2020).
Like-named read-outs stand apart in the source and are kept apart here. Residues, ends and D or L forms follow the SMILES beside them.

What was measured:
[1] = test system: S. epidermidis ATCC 12228; assay: microbe, parasite or virus in culture
Procedure: (§1) The broth microdilution method was used to determine minimal inhibitory concentration (MIC) and minimal bactericidal concentration (MBC). Briefly, two-fold serial dilutions of the peptides were used and the final concentrations ranged between 0.097–50 µM. The final concentrations of the antibiotics vancomycin and teicoplanin ranged between 0.097–50 µg/ml, while rifampicin ranged between 0.0019–1 µg/ml and gentamicin 0.0097–5 µg/ml. The inhibitory and bactericidal effects of peptides together with antibiotics were studied by using the same concentration series of antibiotics with constant, sub-MIC concentrations, of the peptides in all the wells (see figure legends). The plates were then incubated at 37 °C for 20 h. […] MBC was determined as the lowest concentration where no growth of bacterial colonies (10 µl) was observed on blood-agar plates. All experiments were repeated at least three times. The combined effect of teicoplanin and PLNC8 αβ against S. epidermidis ATCC 12228 was evaluated by the microdilution checkerboard method. Briefly, two-fold serial dilutions of the antibiotics and PLNC8 αβ were prepared together in microtiter plates, either alone or in combination. The MIC values were determined visually and spectroscopically, and the fractional inhibitory concentration (ΣFIC) was calculated by the equation (MIC of PLNC8 αβ in combination/MIC of PLNC8 αβ alone) + (MIC of antibiotic in combination/MIC of antibiotic alone). Synergy was defined as ΣFIC ≤ 0.5, additive when 0.5 <ΣFIC ≤1, indifferent when 1 <ΣFIC <2 and antagonistic when ΣFIC ≥ 2.

S. epidermidis 154 = assay: Broth microdilution MIC/MBC; type: cell-based
Procedure: as §1

Trypsin = assay: Proteolytic degradation; type: in vitro ADME; conditions: peptide 100 µM, trypsin 0.125 mg/ml (~5 µM), ammonium bicarbonate buffer 50 mM pH 8.5, 16 h, 37 °C, MALDI-ToF MS
From the text: Samples were resuspended in MQ-water containing 0.1% TFA, desalted using ZipTip-C18 columns (Millipore) and analyzed using MALDI-ToF with α-cyano-4-hydroxycinnamic acid as matrix.

[2] = test system: S. epidermidis 157 (hGISE); assay: Broth microdilution MIC/MBC; type: cell-based
Procedure: as §1, with “legends).” for “legends). The plates were then incubated at 37 °C for 20 h.”

[3] = test system: S. aureus CCUG 35601 (MRSA); assay: Broth microdilution MIC/MBC; type: cell-based
Procedure: as §1, with “legends).” for “legends). The plates were then incubated at 37 °C for 20 h.”

[4] = test system: S. epidermidis 126 (hGISE); assay: Broth microdilution MIC/MBC; type: cell-based
Procedure: as §1, with “legends).” for “legends). The plates were then incubated at 37 °C for 20 h.”

human erythrocytes = assay: Haemolysis; type: cell-based; conditions: isolated human erythrocytes, 1 h, 37 °C, n=3
Procedure: The haemolytic activity of the peptides was investigated by collecting blood from healthy volunteers in heparinized vacutainers. Briefly, the blood was centrifuged at 600 × g for 5 min and the erythrocyte pellet was washed three times in PBS. The cells were then suspended in PBS and added to 96-well plates (15% erythrocyte suspension/well), containing the peptides with two-fold serial dilution. The plates were incubated for 1 h at 37 °C followed by centrifugation for 5 min at 900 × g and measurement of the supernatants at 540 nm. Haemolytic activity (%) was calculated by subtracting the negative control from all values and normalization against the positive control (0.5% Triton X-100), that was set to 100%. All experiments, each in duplicate, were repeated three times.

[5] = Staphylococcus epidermidis, ATCC12228, 20 h
[6] = Staphylococcus epidermidis, 154, 20 h, antibiotic alone, 20 h, read-out: MBC
[7] = Staphylococcus epidermidis, 24 h
[8] = Staphylococcus epidermidis, 154, 20 h
[9] = antibiotic alone, broth microdilution, 37 °C, 20 h
[10] = S. epidermidis 157, antibiotic alone, after 24 h
[11] = MRSA, antibiotic alone, after 24 h
[12] = S. epidermidis 126, antibiotic alone, after 24 h

CNC(C)C1CCC(N)C(OC2C(N)CC(N)C(OC3OCC(C)(O)C(NC)C3O)C2O)O1 (stereo not drawn) [Gentamicin, gentamicin]
MBC [1, 5]: 0.31 µg/mL | MIC [1, 5]: 0.31 µg/mL | MBC (S. epidermidis 154; [6]): > 100 µg/mL | MIC (S. epidermidis 154; Staphylococcus epidermidis, 154, 20 h, antibiotic alone, 20 h, read-out: MIC): > 100 µg/mL

CC(C)C[C@H](NC(=O)[C@H](Cc1ccc(O)cc1)NC(=O)[C@H](Cc1ccc(O)cc1)NC(=O)CNC(=O)[C@H](Cc1c[nH]c2ccccc12)NC(=O)[C@H](CO)NC(=O)[C@H](CO)NC(=O)[C@H](Cc1c[nH]c2ccccc12)NC(=O)[C@H](CC(C)C)NC(=O)[C@H](CCCCN)NC(=O)[C@@H](NC(=O)[C@@H](NC(=O)[C@H](CC(C)C)NC(=O)[C@@H](N)CC(=O)O)[C@@H](C)O)[C@@H](C)O)C(=O)NCC(=O)N[C@@H](CCCCN)C(=O)N[C@@H](CCCCN)C(=O)N[C@@H](C)C(=O)N[C@@H](CCCNC(=N)N)C(=O)N[C@@H](Cc1c[nH]c2ccccc12)C(=O)N[C@@H](CC(N)=O)C(=O)N[C@@H](CC(C)C)C(=O)N[C@@H](CCCCN)C(=O)N[C@@H](Cc1c[nH]cn1)C(=O)N1CCC[C@H]1C(=O)N[C@@H](Cc1ccc(O)cc1)C(=O)N[C@H](C(=O)N[C@@H](CCC(N)=O)C(=O)N[C@@H](Cc1ccccc1)C(=O)O)C(C)C [L-PLNC8 α] (H-DLTTKLWSSWGYYLGKKARWNLKHPYVQF-OH)
degradation by trypsin (Trypsin): efficiently degraded by trypsin

CO[C@H]1/C=C/O[C@@]2(C)Oc3c(C)c(O)c4c(O)c(c(/C=N/N5CCN(C)CC5)c(O)c4c3C2=O)NC(=O)/C(C)=C\C=C\[C@H](C)[C@H](O)[C@@H](C)[C@@H](O)[C@@H](C)[C@H](OC(C)=O)[C@@H]1C [Rifampicin, rifampicin]
MBC [1, 5]: 0.063 µg/mL | MIC [1, 5]: 0.063 µg/mL | MBC (S. epidermidis 154; [6]): 0.05 µg/mL | MBC (S. epidermidis 154; antibiotic alone, 20 h): 0.063 µg/mL

CN[C@H](CC(C)C)C(=O)N[C@H]1C(=O)N[C@@H](CC(N)=O)C(=O)N[C@H]2C(=O)N[C@H]3C(=O)N[C@H](C(=O)N[C@H](C(=O)O)c4cc(O)cc(O)c4-c4cc3ccc4O)[C@H](O)c3ccc(c(Cl)c3)Oc3cc2cc(c3O[C@@H]2O[C@H](CO)[C@@H](O)[C@H](O)[C@H]2O[C@H]2C[C@](C)(N)[C@H](O)[C@H](C)O2)Oc2ccc(cc2Cl)[C@H]1O [Vancomycin, vancomycin]
MBC [1, 5]: 3.1 µg/mL | MIC [1, 5]: 1.5 µg/mL | MBC [2, 7]: 6.25 µg/mL | MIC [2, 7]: 6.25 µg/mL | MBC ([3]; Staphylococcus aureus, 24 h): 3.1 µg/mL | MBC [4, 7]: 3.1 µg/mL | MIC [4, 7]: 3.1 µg/mL | MBC (S. epidermidis 154; [8]): 3.1 µg/mL | MIC (S. epidermidis 154; [8]): 1.5 µg/mL

CC(C)C[C@H](NC(=O)[C@H](Cc1ccc(O)cc1)NC(=O)[C@H](Cc1ccc(O)cc1)NC(=O)CNC(=O)[C@H](Cc1c[nH]c2ccccc12)NC(=O)[C@H](CO)NC(=O)[C@H](CO)NC(=O)[C@H](Cc1c[nH]c2ccccc12)NC(=O)[C@H](CC(C)C)NC(=O)[C@H](CCCCN)NC(=O)[C@@H](NC(=O)[C@@H](NC(=O)[C@H](CC(C)C)NC(=O)[C@@H](N)CC(=O)O)[C@@H](C)O)[C@@H](C)O)C(=O)NCC(=O)O [α1-15] (H-DLTTKLWSSWGYYLG-OH)
cytotoxic at relevant concentrations (<50 µM), determined by haemolytic activity (human erythrocytes): nor the truncated α1–22, α1–15, β7–34, β7–20 and β1–20 were cytotoxic

CC(C)C[C@H](NC(=O)[C@H](CC(N)=O)NC(=O)[C@H](Cc1c[nH]c2ccccc12)NC(=O)[C@H](CCCNC(=N)N)NC(=O)[C@H](C)NC(=O)[C@H](CCCCN)NC(=O)[C@H](CCCCN)NC(=O)CNC(=O)[C@H](CC(C)C)NC(=O)[C@H](Cc1ccc(O)cc1)NC(=O)[C@H](Cc1ccc(O)cc1)NC(=O)CNC(=O)[C@H](Cc1c[nH]c2ccccc12)NC(=O)[C@H](CO)NC(=O)[C@H](CO)NC(=O)[C@H](Cc1c[nH]c2ccccc12)NC(=O)[C@H](CC(C)C)NC(=O)[C@H](CCCCN)NC(=O)[C@@H](NC(=O)[C@@H](NC(=O)[C@H](CC(C)C)NC(=O)[C@@H](N)CC(=O)O)[C@@H](C)O)[C@@H](C)O)C(=O)O [α1-22] (H-DLTTKLWSSWGYYLGKKARWNL-OH)
cytotoxic at relevant concentrations (<50 µM), determined by haemolytic activity (human erythrocytes): nor the truncated α1–22, α1–15, β7–34, β7–20 and β1–20 were cytotoxic

CC[C@H](C)[C@H](NC(=O)CNC(=O)[C@H](CC(C)C)NC(=O)[C@@H](NC(=O)[C@H](Cc1ccc(O)cc1)NC(=O)[C@@H](NC(=O)[C@H](CO)NC(=O)[C@@H](NC(=O)[C@@H]1CCCN1C(=O)[C@@H](NC(=O)[C@@H](N)CO)C(C)C)[C@@H](C)O)C(C)C)[C@@H](C)O)C(=O)N[C@@H](CCCCN)C(=O)N[C@H](C(=O)N[C@@H](CC(C)C)C(=O)N[C@@H](Cc1c[nH]c2ccccc12)C(=O)N[C@@H](CO)C(=O)N[C@@H](C)C(=O)N[C@@H](Cc1ccc(O)cc1)C(=O)N[C@@H](CCCCN)C(=O)N[C@@H](Cc1c[nH]cn1)C(=O)O)[C@@H](C)CC [β1-20] (H-SVPTSVYTLGIKILWSAYKH-OH)
cytotoxic at relevant concentrations (<50 µM), determined by haemolytic activity (human erythrocytes): nor the truncated α1–22, α1–15, β7–34, β7–20 and β1–20 were cytotoxic

CC[C@H](C)[C@H](NC(=O)CNC(=O)[C@H](CC(C)C)NC(=O)[C@@H](NC(=O)[C@@H](N)Cc1ccc(O)cc1)[C@@H](C)O)C(=O)N[C@@H](CCCCN)C(=O)N[C@H](C(=O)N[C@@H](CC(C)C)C(=O)N[C@@H](Cc1c[nH]c2ccccc12)C(=O)N[C@@H](CO)C(=O)N[C@@H](C)C(=O)N[C@@H](Cc1ccc(O)cc1)C(=O)N[C@@H](CCCCN)C(=O)N[C@@H](Cc1c[nH]cn1)C(=O)O)[C@@H](C)CC [β7-20] (H-YTLGIKILWSAYKH-OH)
cytotoxic at relevant concentrations (<50 µM), determined by haemolytic activity (human erythrocytes): nor the truncated α1–22, α1–15, β7–34, β7–20 and β1–20 were cytotoxic

CC[C@H](C)[C@H](NC(=O)CNC(=O)[C@H](CC(C)C)NC(=O)[C@@H](NC(=O)[C@@H](N)Cc1ccc(O)cc1)[C@@H](C)O)C(=O)N[C@@H](CCCCN)C(=O)N[C@H](C(=O)N[C@@H](CC(C)C)C(=O)N[C@@H](Cc1c[nH]c2ccccc12)C(=O)N[C@@H](CO)C(=O)N[C@@H](C)C(=O)N[C@@H](Cc1ccc(O)cc1)C(=O)N[C@@H](CCCCN)C(=O)N[C@@H](Cc1c[nH]cn1)C(=O)N[C@@H](CCCNC(=N)N)C(=O)N[C@@H](CCCCN)C(=O)N[C@H](C(=O)N[C@H](C(=O)N[C@@H](CCC(=O)O)C(=O)N[C@@H](CCCCN)C(=O)N[C@@H](CO)C(=O)N[C@@H](Cc1ccccc1)C(=O)N[C@@H](CC(N)=O)C(=O)N[C@@H](CCCCN)C(=O)NCC(=O)N[C@@H](Cc1ccccc1)C(=O)N[C@@H](Cc1ccc(O)cc1)C(=O)N[C@@H](Cc1c[nH]cn1)C(=O)O)[C@@H](C)CC)[C@@H](C)O)[C@@H](C)CC [β7-34] (H-YTLGIKILWSAYKHRKTIEKSFNKGFYH-OH)
cytotoxic at relevant concentrations (<50 µM), determined by haemolytic activity (human erythrocytes): nor the truncated α1–22, α1–15, β7–34, β7–20 and β1–20 were cytotoxic

teicoplanin
MBC [1, 9]: 1.5 µg/mL | MIC [1, 9]: 1.5 µg/mL | MBC [2, 10]: 25 µg/mL | MIC [2, 10]: 12.5 µg/mL | MBC [3, 11]: 3.1 µg/mL | MIC [3, 11]: 0.78 µg/mL | MBC [4, 12]: 6.25 µg/mL | MIC [4, 12]: 3.1 µg/mL | MBC (S. epidermidis 154; antibiotic alone, 20 h): 1.5 µg/mL | MIC (S. epidermidis 154; antibiotic alone, 20 h): 1.5 µg/mL
